Measurements: ChEMBL document CHEMBL5620399, “Discovery of orally active sulfonylphenyl thieno[3,2-d]pyrimidine derivatives as GPR119 agonists” (Eur J Med Chem, 2023)
Blank lines part the entries; values can stand above or below the compound they belong to.

What was measured:
[1] = target: T1, Glucose-dependent insulinotropic receptor (Homo sapiens, UniProt Q8TDV5); assay: Agonist activity at human GPR119 expressed in CHO-K1 cells preincubated for 5 hrs followed by substrate addition measured after 2 hrs by fluorescence based assay; format: functional, cell-based
T1 sequence (Q8TDV5 whole entry): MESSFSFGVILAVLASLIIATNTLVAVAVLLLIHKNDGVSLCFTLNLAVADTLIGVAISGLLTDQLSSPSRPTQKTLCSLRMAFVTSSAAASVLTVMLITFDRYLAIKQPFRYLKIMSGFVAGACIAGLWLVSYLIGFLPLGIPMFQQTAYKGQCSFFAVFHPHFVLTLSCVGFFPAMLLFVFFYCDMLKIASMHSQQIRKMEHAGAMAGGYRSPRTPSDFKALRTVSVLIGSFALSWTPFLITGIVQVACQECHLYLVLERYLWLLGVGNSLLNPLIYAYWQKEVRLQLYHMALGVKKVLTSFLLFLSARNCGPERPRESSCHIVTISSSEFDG

[2] = Agonist activity at GPR119 in Golden hamster HIT-T15 cells assessed as increase in intracellular cAMP level incubated for 1 hr by fluorescence based assay; format: cell-based; details: Mesocricetus auratus, HIT-T15, 1 h
[3] = Microsomal stability in human liver microsomes assessed as compound remaining at 5 uM measured after 60 mins in presence of NADPH by HPLC analysis; format: ADME, Microsome; details: read-out: Stability
[4] = Microsomal stability in mouse liver microsomes assessed as compound remaining at 5 uM measured after 60 mins in presence of NADPH by HPLC analysis; format: ADME, Microsome; details: read-out: Stability
Cytochrome P450 2C19 = Cytochrome P450 2C19 (Homo sapiens, UniProt P33261); assay: Inhibition of CYP2C19 (unknown origin) using 7-ethoxy-3-cyanocoumarin as substrate preincubated for 10 mins followed by addition of NADPH generating system measured after 30 mins by fluorescence based assay; format: ADME
[5] = Microsomal stability in dog liver microsomes assessed as compound remaining at 5 uM measured after 60 mins in presence of NADPH by HPLC analysis; format: ADME, Canis lupus familiaris, Microsome; details: read-out: Stability
Cytochrome P450 1A2 = target: T2, Cytochrome P450 1A2 (Homo sapiens, UniProt P05177); assay: Inhibition of CYP1A2 (unknown origin) using 7-ethoxy-3-cyanocoumarin as substrate preincubated for 10 mins followed by addition of NADPH generating system measured after 30 mins by fluorescence based assay; format: ADME
T2 sequence (P05177 whole entry): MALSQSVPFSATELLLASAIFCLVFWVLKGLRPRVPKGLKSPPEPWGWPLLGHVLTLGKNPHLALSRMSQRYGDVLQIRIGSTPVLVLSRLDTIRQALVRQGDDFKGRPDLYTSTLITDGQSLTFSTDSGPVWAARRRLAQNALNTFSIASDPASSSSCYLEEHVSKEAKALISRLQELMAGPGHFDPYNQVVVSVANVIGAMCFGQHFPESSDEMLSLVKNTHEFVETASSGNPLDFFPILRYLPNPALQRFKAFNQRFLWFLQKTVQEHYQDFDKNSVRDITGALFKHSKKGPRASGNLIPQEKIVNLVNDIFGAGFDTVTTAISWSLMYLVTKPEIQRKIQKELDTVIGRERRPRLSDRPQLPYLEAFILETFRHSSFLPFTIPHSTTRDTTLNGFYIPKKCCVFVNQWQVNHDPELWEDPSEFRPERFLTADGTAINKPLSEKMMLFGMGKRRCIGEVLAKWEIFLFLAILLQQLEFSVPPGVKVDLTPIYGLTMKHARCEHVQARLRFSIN

Cytochrome P450 2C9 = Cytochrome P450 2C9 (Homo sapiens, UniProt P11712); assay: Inhibition of CYP2C9 (unknown origin) using 7-methoxy-4-trifluoromethylcoumarin as substrate preincubated for 10 mins followed by addition of NADPH generating system measured after 30 mins by fluorescence based assay; format: ADME
Cytochrome P450 3A4 = Cytochrome P450 3A4 (Homo sapiens, UniProt P08684); assay: Inhibition of CYP3A4 (unknown origin) using 7-benzyloxy-4-trifluoromethylcoumarin as substrate preincubated for 10 mins followed by addition of NADPH generating system measured after 30 mins by fluorescence based assay; format: ADME
Cytochrome P450 2D6 = Cytochrome P450 2D6 (Homo sapiens, UniProt P10635); assay: Inhibition of CYP2D6 (unknown origin) using 3-[2-(N,N-diethyl-N-methylammonium)ethyl]-7-methoxy-4-methylcoumarin as substrate preincubated for 10 mins followed by addition of NADPH generating system measured after 30 mins by fluorescence based assay; format: ADME
[6] = Half life in ICR mouse at 10 mg/kg, po; format: ADME, organism-based; details: in vivo
Mus musculus = assay: Anti-diabetic activity in C57BL mouse assessed as reduction in AUC (0 to 2 hrs) at 3 mg/kg, po followed by oral administration of glucose measured for 2 hrs by OGTT assay relative to control; format: functional; design: scale not given: the % may be the effect or the level left
[7] = Oral bioavailability in Sprague-Dawley rat at 5 mg/kg; format: ADME, organism-based; details: in vivo
[8] = Volume of distribution in ICR mouse at 1 mg/kg, iv; format: ADME, organism-based; details: in vivo
[9] = AUC (0 to 24 hrs) in Sprague-Dawley rat at 5 mg/kg, po; format: ADME, organism-based; details: in vivo
[10] = MRTlast in ICR mouse at 1 mg/kg, iv; format: ADME, organism-based; details: in vivo
[11] = Microsomal stability in rat liver microsomes assessed as compound remaining at 5 uM measured after 60 mins in presence of NADPH by HPLC analysis; format: ADME, Microsome; details: read-out: Stability
[12] = MRTlast in ICR mouse at 10 mg/kg, po; format: ADME, organism-based; details: in vivo
[13] = MRTlast in Sprague-Dawley rat at 1 mg/kg, iv; format: ADME, organism-based; details: in vivo
[14] = Half life in Sprague-Dawley rat at 5 mg/kg, po; format: ADME, organism-based; details: in vivo
[15] = AUC (0 to 24 hrs) in ICR mouse at 1 mg/kg, iv; format: ADME, organism-based; details: in vivo
[16] = Oral bioavailability in ICR mouse at 10 mg/kg; format: ADME, organism-based; details: in vivo
Rattus norvegicus = assay: Anti-diabetic activity in Sprague-Dawley rat assessed as reduction in AUC (0 to 2 hrs) at 3 mg/kg, po followed by oral administration of glucose measured for 2 hrs by OGTT assay relative to control; format: functional; design: scale not given: the % may be the effect or the level left
[17] = Clearance in ICR mouse at 1 mg/kg, iv; format: ADME, organism-based; details: in vivo
[18] = Cmax in Sprague-Dawley rat at 5 mg/kg, po; format: ADME, organism-based; details: in vivo
[19] = Clearance in Sprague-Dawley rat at 1 mg/kg, iv; format: ADME, organism-based; details: in vivo
[20] = Volume of distribution in Sprague-Dawley rat at 1 mg/kg, iv; format: ADME, organism-based; details: in vivo
[21] = AUC (0 to 24 hrs) in Sprague-Dawley rat at 1 mg/kg, iv; format: ADME, organism-based; details: in vivo
[22] = Tmax in Sprague-Dawley rat at 5 mg/kg, po; format: ADME, organism-based; details: in vivo
[23] = Half life in Sprague-Dawley rat at 1 mg/kg, iv; format: ADME, organism-based; details: in vivo
[24] = Cmax in ICR mouse at 10 mg/kg, po; format: ADME, organism-based; details: in vivo
[25] = MRTlast in Sprague-Dawley rat at 5 mg/kg, po; format: ADME, organism-based; details: in vivo
[26] = AUC (0 to 24 hrs) in ICR mouse at 10 mg/kg, po; format: ADME, organism-based; details: in vivo
[27] = Tmax in ICR mouse at 10 mg/kg, po; format: ADME, organism-based; details: in vivo
[28] = Half life in ICR mouse at 1 mg/kg, iv; format: ADME, organism-based; details: in vivo

Chain of Cytochrome P450 2C19 (P33261 whole entry): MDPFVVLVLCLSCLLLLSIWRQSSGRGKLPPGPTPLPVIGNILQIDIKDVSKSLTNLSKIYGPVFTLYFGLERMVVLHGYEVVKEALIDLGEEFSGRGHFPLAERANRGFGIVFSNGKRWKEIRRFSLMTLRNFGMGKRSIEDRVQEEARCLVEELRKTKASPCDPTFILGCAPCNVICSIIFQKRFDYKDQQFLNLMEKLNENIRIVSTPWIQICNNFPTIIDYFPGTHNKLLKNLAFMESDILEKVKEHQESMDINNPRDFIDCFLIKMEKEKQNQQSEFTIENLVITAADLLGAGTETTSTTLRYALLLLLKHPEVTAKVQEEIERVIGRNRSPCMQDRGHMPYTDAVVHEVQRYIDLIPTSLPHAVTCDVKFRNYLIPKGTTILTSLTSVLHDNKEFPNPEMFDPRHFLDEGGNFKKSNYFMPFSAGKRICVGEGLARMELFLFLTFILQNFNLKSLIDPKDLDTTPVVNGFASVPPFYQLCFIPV
Chain of Cytochrome P450 2D6 (P10635 whole entry): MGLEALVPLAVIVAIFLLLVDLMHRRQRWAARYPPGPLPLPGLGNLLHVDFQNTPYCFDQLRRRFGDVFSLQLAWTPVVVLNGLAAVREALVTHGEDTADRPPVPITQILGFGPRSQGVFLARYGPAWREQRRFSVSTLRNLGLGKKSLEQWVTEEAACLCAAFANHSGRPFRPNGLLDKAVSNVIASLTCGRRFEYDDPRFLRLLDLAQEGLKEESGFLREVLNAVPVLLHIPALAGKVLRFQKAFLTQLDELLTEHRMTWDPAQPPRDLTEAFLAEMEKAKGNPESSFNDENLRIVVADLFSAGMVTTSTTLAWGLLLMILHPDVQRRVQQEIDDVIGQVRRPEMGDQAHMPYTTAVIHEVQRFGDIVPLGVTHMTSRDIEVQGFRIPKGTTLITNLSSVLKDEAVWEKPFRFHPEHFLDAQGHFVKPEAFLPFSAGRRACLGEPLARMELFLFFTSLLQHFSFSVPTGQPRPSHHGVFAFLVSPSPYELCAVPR
Chain of Cytochrome P450 2C9 (P11712 whole entry): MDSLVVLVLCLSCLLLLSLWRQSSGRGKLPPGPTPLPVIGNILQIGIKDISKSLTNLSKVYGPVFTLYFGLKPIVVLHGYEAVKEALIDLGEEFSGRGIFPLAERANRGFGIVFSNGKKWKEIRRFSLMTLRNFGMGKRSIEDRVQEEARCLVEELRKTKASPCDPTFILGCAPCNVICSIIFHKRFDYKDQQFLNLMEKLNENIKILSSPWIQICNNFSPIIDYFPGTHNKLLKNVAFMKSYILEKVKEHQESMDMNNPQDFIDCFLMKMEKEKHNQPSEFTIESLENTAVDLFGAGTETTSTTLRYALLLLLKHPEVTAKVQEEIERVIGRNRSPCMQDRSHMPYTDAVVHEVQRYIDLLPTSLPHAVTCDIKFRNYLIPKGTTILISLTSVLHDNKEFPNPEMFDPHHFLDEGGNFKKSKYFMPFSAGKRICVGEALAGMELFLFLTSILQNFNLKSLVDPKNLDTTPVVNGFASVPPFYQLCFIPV
Chain of Cytochrome P450 3A4 (P08684 whole entry): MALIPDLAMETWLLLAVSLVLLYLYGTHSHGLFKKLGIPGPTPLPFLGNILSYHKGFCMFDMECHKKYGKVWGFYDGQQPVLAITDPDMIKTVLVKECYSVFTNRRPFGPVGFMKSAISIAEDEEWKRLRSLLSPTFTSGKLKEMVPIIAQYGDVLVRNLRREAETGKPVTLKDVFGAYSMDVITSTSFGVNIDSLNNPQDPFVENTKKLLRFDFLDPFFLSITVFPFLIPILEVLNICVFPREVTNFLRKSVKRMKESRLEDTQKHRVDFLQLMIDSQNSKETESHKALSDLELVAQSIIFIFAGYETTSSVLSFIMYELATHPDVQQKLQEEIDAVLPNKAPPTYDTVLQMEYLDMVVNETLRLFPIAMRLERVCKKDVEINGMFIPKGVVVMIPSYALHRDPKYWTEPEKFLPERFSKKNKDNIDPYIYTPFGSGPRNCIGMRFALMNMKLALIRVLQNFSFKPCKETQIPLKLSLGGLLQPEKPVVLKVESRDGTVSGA

EC50 [1]: > 100 nM
Compound: CS(=O)(=O)c1ccc(-c2csc3c(N4CCCC4)ncnc23)cc1

EC50 [2]: 16.8 nM
EC50 [1]: 23.9 nM
Compound: CS(=O)(=O)c1ccc(-c2csc3c(N4CCC(c5nc(C6CC6)no5)CC4)ncnc23)cc1

remaining at 1 h, 5 µM [3]: 13%
remaining at 1 h, 5 µM [4]: 21%
EC50 [2]: 11.5 nM
IC50 (Cytochrome P450 2C19): 3680 nM
remaining at 1 h, 5 µM [5]: 6%
IC50 (Cytochrome P450 1A2): > 50000 nM
IC50 (Cytochrome P450 2C9): < 620 nM
EC50 [1]: 11.7 nM
IC50 (Cytochrome P450 3A4): 12000 nM
IC50 (Cytochrome P450 2D6): > 50000 nM
Compound: CC(C)c1noc(C2CCN(c3ncnc4c(-c5ccc(S(C)(=O)=O)cc5)csc34)CC2)n1

EC50 [2]: > 1000 nM
EC50 [1]: 5.6 nM
Compound: CS(=O)(=O)c1ccc(-c2csc3c(OC4CCN(c5nc(C6CCCC6)no5)CC4)ncnc23)cc1

EC50 [2]: 32.5 nM
EC50 [1]: 12.5 nM
Compound: CS(=O)(=O)c1ccc(-c2csc3c(N4CCC(c5nc(C6CCCCC6)no5)CC4)ncnc23)cc1

EC50 [1]: > 100 nM
Compound: CCN(c1ncnc2c(-c3ccc(S(C)(=O)=O)cc3)csc12)C1CCN(C(=O)OC(C)(C)C)CC1

remaining at 1 h, 5 µM [3]: 35%
remaining at 1 h, 5 µM [4]: 38%
half-life [6]: 2.2 h
bioavailability [7]: 61.5%
Vd [8]: 1.2 L/kg
EC50 [2]: 22.8 nM
AUC(0-t) [9]: 5720 ng·h/mL
MRT last [10]: 3 h
remaining at 1 h, 5 µM [11]: 48%
MRT last [12]: 3.8 h
IC50 (Cytochrome P450 2C19): 5550 nM
remaining at 1 h, 5 µM [5]: 62%
IC50 (Cytochrome P450 1A2): > 50000 nM
MRT last [13]: 3.6 h
half-life [14]: 2.4 h
AUC(0-t) [15]: 2770 ng·h/mL
bioavailability [16]: > 100%
IC50 (Cytochrome P450 2C9): > 50000 nM
clearance [17]: 5 mL/min/kg
Cmax [18]: 1480 ng/mL
clearance [19]: 5 mL/min/kg
Vd [20]: 1.2 L/kg
EC50 [1]: 6.3 nM
AUC(0-t) [21]: 1860 ng·h/mL
Tmax [22]: 1 h
IC50 (Cytochrome P450 3A4): 3790 nM
half-life [23]: 2.8 h
Cmax [24]: 9130 ng/mL
MRT last [25]: 3.2 h
IC50 (Cytochrome P450 2D6): > 50000 nM
AUC(0-t) [26]: 32700 ng·h/mL
Tmax [27]: 0.5 h
half-life [28]: 3.4 h
Compound: CC(C)c1noc(N2CCC(Oc3ncnc4c(-c5ccc(S(C)(=O)=O)cc5F)csc34)CC2)n1
Activity (Mus musculus): 37.4%
Activity (Rattus norvegicus): 15%

EC50 [1]: > 100 nM
Compound: CS(=O)(=O)c1ccc(-c2csc3c(N4CCCCC4)ncnc23)cc1

EC50 [1]: > 100 nM
Compound: CN1CCC(Oc2ncnc3c(-c4ccc(S(C)(=O)=O)cc4F)csc23)CC1

EC50 [1]: 754 nM
Compound: CC(C)c1noc(N2CCC(Oc3ncnc4c(-c5ccc(S(C)(=O)=O)cc5)csc34)C2)n1 (configuration not stated)

EC50 [1]: 3.6 nM
Compound: CC(C)(C)c1noc(N2CCC(Oc3ncnc4c(-c5ccc(S(C)(=O)=O)cc5F)csc34)CC2)n1

remaining at 1 h, 5 µM [4]: 23%
EC50 [2]: 16 nM
remaining at 1 h, 5 µM [11]: 9%
remaining at 1 h, 5 µM [5]: 10%
EC50 [1]: 8.7 nM
Compound: CS(=O)(=O)c1ccc(-c2csc3c(N4CCC(c5nc(C6CCCC6)no5)CC4)ncnc23)cc1

EC50 [2]: 153 nM
EC50 [1]: 15 nM
Compound: CCc1cnc(N2CCC(N(CC)c3ncnc4c(-c5ccc(S(C)(=O)=O)cc5)csc34)CC2)nc1

EC50 [2]: 2 nM
EC50 [1]: 3.1 nM
Compound: CCc1cnc(N2CCC(c3nc(COc4ccc(-n5cnnn5)cc4)cs3)CC2)nc1 [MBX-2982]
Activity (Mus musculus): 29%
Activity (Rattus norvegicus): 7.3%

EC50 [1]: > 100 nM
Compound: CC(C)(C)OC(=O)N1CCC(Nc2ncnc3c(-c4ccc(S(C)(=O)=O)cc4)csc23)CC1

EC50 [1]: 74.8 nM
Compound: CCc1cnc(N2CCC(Oc3ncnc4c(-c5ccc(S(C)(=O)=O)cc5)csc34)C2)nc1 (configuration not stated)

EC50 [2]: 35.9 nM
EC50 [1]: 7.4 nM
Compound: CCc1cnc(N2CCC(N(C)c3ncnc4c(-c5ccc(S(C)(=O)=O)cc5)csc34)CC2)nc1

EC50 [2]: 19.1 nM
EC50 [1]: 33.8 nM
Compound: CN(c1ncnc2c(-c3ccc(S(C)(=O)=O)cc3)csc12)C1CCN(C(=O)OC(C)(C)C)CC1

EC50 [1]: > 100 nM
Compound: CS(=O)(=O)c1ccc(-c2csc3c(OC4CCNCC4)ncnc23)c(F)c1

EC50 [1]: 1.4 nM
Compound: CC(C)(C)OC(=O)N1CCC(Oc2ncnc3c(-c4ccc(S(C)(=O)=O)cc4F)csc23)CC1

EC50 [2]: 47 nM
EC50 [1]: 24.8 nM
Compound: CS(=O)(=O)c1ccc(-c2csc3c(OC4CCN(c5nc(C6CC6)no5)CC4)ncnc23)cc1

EC50 [2]: 86.3 nM
EC50 [1]: 1.9 nM
Compound: CS(=O)(=O)c1ccc(-c2csc3c(N4CCC(c5nc(C6CCCC6)no5)CC4)ncnc23)c(F)c1

EC50 [1]: > 100 nM
Compound: CCN(c1ncnc2c(-c3ccc(S(C)(=O)=O)cc3)csc12)C1CCN(c2ccc(C(F)(F)F)cn2)CC1

EC50 [1]: 2.1 nM
Compound: CCCc1noc(N2CCC(Oc3ncnc4c(-c5ccc(S(C)(=O)=O)cc5F)csc34)CC2)n1
